# Experimental data as given in patent US8993527B2, “Methods, compositions, and formulations for preventing or reducing adverse effects in a patient” (Pericor Therapeutics, Inc., priority 2005, dated 2015).
# Like-named read-outs stand apart in the source and are kept apart here.
# Assays:
# [1] = test system: ischemic myocardium; format: in vivo, dog; conditions: vs saline-treated animals, 5 and 60 minutes of ischemia
# Source text: Thirteen mongrel dogs were anesthetized with phenobarbital. […] C.V. Dis. 20; 55 (1977).
# [2] = test system: adenylosuccinase deficiency (autism); test: Therapeutic trial of oral AICA riboside in patients with adenylosuccinase deficiency (autism); format: in vivo, human
# Source text: Following authorization, therapeutic trials with AICA riboside were started in two patients with adenylosuccinase deficiency (autism). […] On Day 55, both patients were briefly readmitted for clinical, biochemical and psychiatric evaluation. […] Treatment was maintained until Day 71, and arrested at that date. […] A correct assessment of the renal loss of the nucleoside could not be obtained. […] The following parameters were found normal before and during the trial treatment with AICA riboside: red blood cell count, white blood cell count, platelet and reticulocyte counts; leukocyte differentiations; hematocrit, ionogram, Ca, phosphate, urea, creatinine, uric acid, cholesterol, lipids, SGOT, SGPT, CPK, glucose, lactate and ammonia.
# [3] = test system: patients undergoing CABG surgery; test: Phase 2 CABG trial: myocardial ischemia by Holter ECG and TEE; format: in vivo, human; conditions: for Isch min/h monitored: postbypass, listed as AICA riboside
# Procedure: The evaluation of Holter tapes and echo videotapes was performed centrally by two independent blinded observers; if there was disagreement between the two, a third observer was used to “break the tie.” The same observers were used throughout the study. 5. Ischemic Events-TEE. Ischemic event data were evaluated during two time periods-pre-bypass and post-bypass, using the following analysis: a) The number of patients with ischemic events was compared across the groups using Fisher's exact test. This analysis also included pre-post changes and pre- and post-combined. b) For patients with events, analysis of the mean duration and severity of ischemia was done. […] For severity (an ordinary variable, 0-4 scale) and number of events, the nonparametric test was used. […] 6. Ischemic Events-ECG. The analysis of ischemic events indicated by ECG was done using the same methods as the echo events. The time periods analyzed were: (a) baseline (Holter start to infusion start), (b) pre-bypass (infusion start to bypass start), (c) post-bypass ([…] off to infusion end), and (d) post-treatment (infusion end to Holter end). For patients with events, the following variables were analyzed: mean duration, maximum ST change and area under the curve of significant ST segment deviation. Analysis of variance (ANOVA) was used. 3. Myocardial Ischemia. Myocardial ischemia was measured with continuous Holter ECG and TEE. […] ECG episodes of ischemia were defined as reversible S-T depression 1 mm or greater lasting 1 minute or longer. TEE data were recorded continuously during surgery at the level of the mid-papillary muscles of the left ventricle. The wall motion of each of the four segments was graded from 0-4 (normal to […] ischemia was defined by regional wall motion worsening at least 2 grades and lasting 1 minute or longer.
# [4] = test system: patients undergoing CABG surgery; test: Phase 2 CABG trial: difficulty in weaning from bypass; format: in vivo, human; conditions: for WEANING TIME: Pts without Difficulty
# Procedure: During surgery, anesthesia was maintained by continuous infusion of fentanyl and midazolam. Routine clinical parameters were recorded using standard operating room monitoring equipment. Continuous 2-lead Holter ECG and TEE data were recorded. Standard surgical procedures (e.g., aorta cross-clamping, crystalloid cardioplegia, cardiopulmonary bypass, hypothermia) were used. Anastomoses were constructed, aorta cross-clamp removed and patients were discontinued from bypass when body temperature was 37° C. The quality of anastomosis was judged by the surgeon. Difficulty in weaning from bypass was judged by need for one or more of the following: pacemaker, return to bypass, balloon pump or vasopressor administration. Hemodynamic measurements, including heart rate, arterial blood pressure, pulmonary capillary wedge pressure and cardiac output, were recorded before stemotomy, 15 and 30 min after bypass and upon chest closure. Radial artery and pulmonary artery pressures, myocardial and whole body temperature, O2 saturation, end-tidal CO2 and arterial blood gases were measured, and ECG recordings were obtained as clinically indicated. Hemodynamic variables (blood pressure, heart rate, pulmonary capillary wedge pressure) were controlled within 20% of baseline using prescribed regimens.
# The incidence of adverse clinical outcomes, such as cardiac death (death of patient attributable to primarily cardiac causes, non-fatal transmural MI (as measured by the appearance of a new Q-wave on 12-lead ECG plus a CK-MB value of ≧50 units), non-transmural MI (CK-MB value of ≧50 units), congestive heart failure (low cardiac output requiring intra-aortic balloon pump or left ventricular assist device) or life-threatening dysrhythmia (ventricular fibrillation, or ventricular tachycardia requiring cardioversion or drug treatment) was compared between the placebo and treatment groups. For the diagnosis of myocardial infarction, ECG tracings and CK-MB values were assessed centrally by observers blinded to treatment. The difficulty of weaning the patient from bypass, if any, was compared between placebo and treatment groups by noting need for one or more of the following: pacemaker, return to bypass, balloon pump or use of vasopressors.
# 8. Difficulty in Weaning. Patients were considered to have difficulty in weaning if they needed one or more of the following interventions: pacemaker, return to bypass, balloon pump or use of vasopressors. The number of patients receiving each of the above interventions was analyzed using a X^2 and Fisher's exact test, as was the number of patients classified as having difficulty in weaning. In addition, the time to weaning (defined as time from cross-clamp removal to end of bypass) in the patients experiencing difficulty were compared by a 1-way analysis of variance.
# As noted, patients were determined as being difficult to remove from cardiopulmonary bypass if they required one or more of the following interventions: insertion of a pacemaker, return to bypass, use of a balloon pump or administration of vasopressors, or another intervention which the investigation determines is indicative of difficulty in weaning. […] When a combination of the high and low dose groups were compared to placebo (Table 9b), the reduced need for vasopressor support approached statistical significance (p=0.08). […] There were no differences in any of the weaning difficulty parameters discussed above between the high and low dose groups (Table 9c).
# [5] = test system: patients undergoing CABG surgery
# [6] = plasma level 3.00–4.00 μg/ml, n = 44
# [7] = plasma level 4.00–5.00 μg/ml, n = 61
compound,measurement,setting,value
"NC(=O)c1ncn([C@@H]2O[C@H](CO)[C@@H](O)[C@H]2O)c1N [1 (1-110), 5-amino-1-β-D-ribofuranosyl-imidazole-4-carboxamide]",regional myocardial blood flow to the ischemic myocardium,[1],significantly greater
same,side effects,[2]; oral 5 mg/kg/day up to 2×10 mg/kg/day,No clinical or biochemical side effects were observed
same,AICA riboside in plasma and CSF,"[2]; oral, all dosages used",could not be detected
same,autistic features after two months of continuous administration,"[2]; younger patient, older patient without modification",clear-cut improvement
same,Isch min/h monitored,[3]; High Dose,27±20 min/h
same,Isch min/h monitored,[3]; Low Dose,40±15 min/h
same,"incidence of ECG ischemia, postbypass period",[3]; high dose,11%
same,"incidence of ECG ischemia, prebypass period",[3]; high dose,3%
same,"incidence of TEE ischemia, postbypass period",[3]; high dose,24%
same,"incidence of TEE ischemia, prebypass period",[3]; high dose,6%
same,"incidence of ECG ischemia, postbypass period",[3]; low dose,22%
same,"incidence of ECG ischemia, prebypass period",[3]; low dose,3%
same,"incidence of TEE ischemia, postbypass period",[3]; low dose,27%
same,"incidence of TEE ischemia, prebypass period",[3]; low dose,15%
same,WEANING TIME,[4]; 0.05 mg/kg/min,20.4 +/− 2.5
same,WEANING TIME,[4]; 0.1 mg/kg/min,16.3 +/− 1.9
same,PATIENTS WITH ANY DIFFICULTY WEANING,"[4]; 0.05 + 0.10, 76 patients",15 (19.7%)
same,PATIENTS WITH ANY DIFFICULTY WEANING,"[4]; 0.05, 41 patients",7 (17%)
same,PATIENTS WITH ANY DIFFICULTY WEANING,"[4]; 0.10, 35 patients",8 (23%)
same,"Cardiac Death, incidence","[5]; Low Dose, n = 214",5 (2.3%)
same,"Cerebrovascular Accident, incidence","[5]; Low Dose, n = 214",2 (0.9%)
same,"Combined Clinical Outcomes, incidence","[5]; Low Dose, n = 214",23 (10.7%)
same,"Congestive Heart Failure, incidence","[5]; Low Dose, n = 214",6 (2.8%)
same,"Life-Threatening Dysrhythmia, incidence","[5]; Low Dose, n = 214",9 (4.2%)
same,decrease in incidence of MI,[5]; high dose vs placebo,68%
same,decrease in incidence of cerebrovascular accident,[5]; high dose vs placebo,88%
same,reduction in the incidence of combined outcomes,[5]; high dose vs placebo,61%
same,incidence of myocardial infarction by either ECG or CK-MB,"[5]; high dose, placebo 24.1%",20.8%
same,"Myocardial Infarction MI, incidence","[5]; plasma level 0.25–2.00 μg/ml, n = 83",2 (2.4%)
same,"Combined Clinical Outcome, incidence","[5]; plasma level 0.25–2.00 μg/ml, n = 89",9 (10.1%)
same,"Myocardial Infarction MI, incidence","[5]; plasma level 2.00–3.00 μg/ml, n = 114",5 (4.4%)
same,"Combined Clinical Outcome, incidence","[5]; plasma level 2.00–3.00 μg/ml, n = 116",11 (9.5%)
same,"Combined Clinical Outcome, incidence",[5]; [6],3 (6.8%)
same,"Myocardial Infarction MI, incidence",[5]; [6],1 (2.3%)
same,"Combined Clinical Outcome, incidence",[5]; [7],2 (3.3%)
same,"Myocardial Infarction MI, incidence",[5]; [7],0
same,"Myocardial Infarction MI, incidence","[5]; plasma level 5.00–6.00 μg/ml, n = 49",2 (4.1%)
same,"Combined Clinical Outcome, incidence","[5]; plasma level 5.00–6.00 μg/ml, n = 50",3 (6.0%)
same,"Myocardial Infarction MI, incidence","[5]; plasma level <0.25 μg/ml, n = 209",9 (4.3%)
same,"Combined Clinical Outcome, incidence","[5]; plasma level <0.25 μg/ml, n = 211",29 (13.7%)
same,"Myocardial Infarction MI, incidence","[5]; plasma level >6.00 μg/ml, n = 44",1 (2.3%)
same,"Combined Clinical Outcome, incidence","[5]; plasma level >6.00 μg/ml, n = 46",4 (8.7%)
